Biological target: T1, human HSD1 (recombinant HSD1) (Homo sapiens, UniProt P28845)
T1 construct: made in house
Experiment: In vitro HSD1 activity inhibitory action, SPA of cortisone to cortisol conversion
Format: biochemical
Details: recombinant human HSD1 0.1 μg/ml, 500 μM NADPH, 16 nM 3H cortisone, room temperature 90 min, read-out: hHSD1 IC50
Experimental: In Vitro HSD1 (Hydroxysteroid Dehydrogenase 1) Activity Inhibitory Action
The HSD1 inhibitory activity was examined by quantitative determination by an SPA (scintillation proximity assay) system of the suppressive action on the conversion from cortisone to cortisol using human HSD1 (hereinafter recombinant HSD1) expressed using a baculo-virus system as an enzyme source. For the reaction, a reagent was added to a 96 well plate (96 well Opti-plates™-96 (Packard)) to the following final concentration and a volume of 100 μl was reacted at room temperature for 90 min. The reaction solution used was 0.1 μg/ml recombinant HSD1, 500 μM NADPH, 16 nM ^3H cortisone (Amersham Biosciences, 1.78 Tbq/mol) dissolved in 0.1% BSA (Sigma)-containing PBS and the test drug was 2 μl of a compound solution (dissolved in DMSO). After 90 min, the reaction was stopped by adding PBS (40 μl, containing 0.1% BSA (Sigma)) containing 0.08 μg of anti-cortisol mouse monoclonal antibody (East Coast Biologics), 365 μg SPA PVT mouse antibody-binding beads (Amersham Biosciences) and 175 μM carbenoxolone (Sigma) to the reaction solution. After the completion of the reaction, the plate was incubated overnight at room temperature and the radioactivity was measured by Topcount (Packard). For control, the value (0% inhibition) of the well containing 2 μl of DMSO instead of the test drug was used, and for positive control, the value (100% inhibition) of the well containing carbenoxolone instead of the test drug at the final concentration of 50 μM was used. The inhibition (%) of the test drug was calculated by ((value of control−value of test drug)/(value of control−value of positive control))×100 (%). The IC50 value was analyzed using a computer-based curve fitting soft.

T1 sequence (P28845 whole entry): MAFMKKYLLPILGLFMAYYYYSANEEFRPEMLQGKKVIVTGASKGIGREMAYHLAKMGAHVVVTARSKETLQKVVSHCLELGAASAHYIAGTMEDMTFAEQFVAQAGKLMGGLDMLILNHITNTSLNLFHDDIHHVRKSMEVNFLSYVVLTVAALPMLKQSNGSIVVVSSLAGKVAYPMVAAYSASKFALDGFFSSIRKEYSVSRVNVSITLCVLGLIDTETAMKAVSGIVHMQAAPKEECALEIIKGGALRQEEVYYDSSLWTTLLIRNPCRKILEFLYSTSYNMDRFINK

| SMILES | IC50 |
| --- | --- |
| Cn1c(-c2ccc(C(=O)NCC(F)(F)F)cc2Cl)nnc1C1(c2ccccc2)CC1 [Ex. 1-83] | 0.01 to 1 µM |
| CC(=O)NCCNC(=O)c1ccc(-c2nnc(C3(c4ccccc4)CC3)n2C)c(Cl)c1 [Ex. 1-84] | 0.01 to 1 µM |
| COCCNC(=O)c1ccc(-c2nnc(C3(c4ccccc4)CC3)n2C)c(Cl)c1 [Ex. 1-85] | 0.01 to 1 µM |
| CN(C)CCNC(=O)c1ccc(-c2nnc(C3(c4ccccc4)CC3)n2C)c(Cl)c1 [Ex. 1-87] | 0.01 to 1 µM |
| Cn1c(-c2ccc(C(=O)NCCN3CCOCC3)cc2Cl)nnc1C1(c2ccccc2)CC1 [Ex. 1-88] | 0.01 to 1 µM |
| CN(C)c1ccc(-c2nnc(C3(c4ccccc4)CC3)n2C)c(Cl)c1 [Ex. 1-89] | < 0.01 µM |
| Cn1c(-c2ccc(N3CCOCC3)cc2Cl)nnc1C1(c2ccccc2)CC1 [Ex. 1-90] | < 0.01 µM |
| COc1cc(Cl)ccc1-c1nnc(C2(c3ccccc3)CC2)n1C [Ex. 1-91] | < 0.01 µM |
| Cn1c(-c2ccc(F)cc2Cl)nnc1C1(c2ccccc2)CC1 [Ex. 1-92] | < 0.01 µM |
| Cn1c(-c2ccc(Cl)cc2[N+](=O)[O-])nnc1C1(c2ccccc2)CC1 [Ex. 1-93] | < 0.01 µM |
| Cn1c(-c2ccc(Cl)cc2N)nnc1C1(c2ccccc2)CC1 [Ex. 1-94] | 0.01 to 1 µM |
| Cn1c(-c2ccc(Cl)cc2F)nnc1C1(c2ccccc2)CC1 [Ex. 1-95] | < 0.01 µM |
| Cn1c(-c2ccncc2Cl)nnc1C1(c2ccccc2)CC1 [Ex. 1-96] | < 0.01 µM |
| Cn1c(-c2ccc(Cl)nc2Cl)nnc1C1(c2ccccc2)CC1 [Ex. 1-97] | 0.01 to 1 µM |
| Cn1c(-c2ccccn2)nnc1C1(c2ccccc2)CC1 [Ex. 1-98] | 0.01 to 1 µM |
| Cn1c(C2CCN(Cc3c(Cl)cccc3Cl)CC2)nnc1C1(c2ccccc2)CC1 [Ex. 1-99] | 0.01 to 1 µM |
| Cn1c(-c2ccc(Br)cc2Cl)nnc1C1(c2ccccc2)CC1 [Ex. 1-100] | < 0.01 µM |
| Cn1c(-c2ccccc2Cl)nnc1C1(c2ccccc2)CC1 [Ex. 1-101] | < 0.01 µM |
| Cn1c(-c2ccc(C(C)(O)C(F)(F)F)cc2Cl)nnc1C1(c2ccccc2)CC1 (stereo not shown) [Ex. 1-102] | < 0.01 µM |
| Cn1c(C2CCCCC2)nnc1C1(c2ccccc2)CC1 [Ex. 1-103] | < 0.01 µM |
| COC(=O)[C@H]1CC[C@H](c2nnc(C3(c4ccccc4)CC3)n2C)CC1 [Ex. 1-104] | 0.01 to 1 µM |
| Cn1c(C2(c3ccccc3)CC2)nnc1[C@H]1CC[C@H](CO)CC1 [Ex. 1-105] | < 0.01 µM |
| CC(C)n1c(-c2ccc(Cl)cc2)nnc1C1(c2ccc(F)cc2)CC1 [Ex. 1-106] | < 0.01 µM |
| Cn1c(-c2ccc(Cl)cc2Cl)nnc1C1(c2ccc(F)cc2)CC1 [Ex. 1-107] | < 0.01 µM |
| Cn1c(-c2ccc(N3CCC(CO)CC3)cc2Cl)nnc1C1(c2ccccc2)CC1 [Ex. 1-108] | < 0.01 µM |
| Cn1c(-c2ccc(N3CCC(C(N)=O)CC3)cc2Cl)nnc1C1(c2ccccc2)CC1 [Ex. 1-109] | < 0.01 µM |
| COCCNC(=O)C1CCN(c2ccc(-c3nnc(C4(c5ccccc5)CC4)n3C)c(Cl)c2)CC1 [Ex. 1-110] | < 0.01 µM |

| SMILES | IC50 |
| --- | --- |
| Cn1c(C2(c3ccccc3)CC2)nnc1[C@H]1CC[C@H](C(=O)O)CC1 [Ex. 1-111] | 0.01 to 1 µM |
| Cn1c(C2(c3ccccc3)CC2)nnc1[C@H]1CC[C@H](C(N)=O)CC1 [Ex. 1-112] | < 0.01 µM |
| Cn1c(-c2ccc(N3CCC(C(=O)N4CCCCC4)CC3)cc2Cl)nnc1C1(c2ccccc2)CC1 [Ex. 1-113] | < 0.01 µM |
| Cn1c(-c2ccc(N3CCC(C(=O)N4CCOCC4)CC3)cc2Cl)nnc1C1(c2ccccc2)CC1 [Ex. 1-114] | < 0.01 µM |
| CN(C)C(=O)C1CCN(c2ccc(-c3nnc(C4(c5ccccc5)CC4)n3C)c(Cl)c2)CC1 [Ex. 1-115] | < 0.01 µM |
| Cn1c(-c2ccc(N3CCC(C(=O)NCC(F)(F)F)CC3)cc2Cl)nnc1C1(c2ccccc2)CC1 [Ex. 1-116] | < 0.01 µM |
| CONC(=O)Nc1ccc(-c2nnc(C3(c4ccccc4)CC3)n2C)c(Cl)c1 [Ex. 1-117] | < 0.01 µM |
| Cn1c(-c2ccc(N3CCOC3=O)cc2Cl)nnc1C1(c2ccc(F)cc2)CC1 [Ex. 1-118] | < 0.01 µM |
| Cn1c(-c2ccc(OCCO)cc2Cl)nnc1C1(c2ccccc2)CC1 [Ex. 1-119] | < 0.01 µM |
| Cn1c(-c2ccc(NCCO)cc2Cl)nnc1C1(c2ccc(F)cc2)CC1 [Ex. 1-120] | < 0.01 µM |
| Cn1c(C2(c3ccccc3)CC2)nnc1C1(c2ccccc2)CC1 [Ex. 1-121] | < 0.01 µM |
| Cn1c(-c2cc(Cl)ccc2Cl)nnc1C1(c2ccc(F)cc2)CC1 [Ex. 1-122] | < 0.01 µM |
| Cn1c(-c2ccc(Cl)cc2Cl)nnc1C1(c2ccc(F)cc2)CCCC1 [Ex. 1-123] | < 0.01 µM |
| COc1cc(C(=O)O)ccc1-c1nnc(C2(c3ccccc3)CC2)n1C [Ex. 1-124] | 0.01 to 1 µM |
| COc1cc(C(N)=O)ccc1-c1nnc(C2(c3ccccc3)CC2)n1C [Ex. 1-125] | < 0.01 µM |
| Cn1c(-c2ccc(C(=O)O)cc2Cl)nnc1C1(c2ccc(F)cc2)CC1 [Ex. 1-126] | 0.01 to 1 µM |
| Cn1c(-c2ccc(C(N)=O)cc2Cl)nnc1C1(c2ccc(F)cc2)CC1 [Ex. 1-127] | < 0.01 µM |
| Cn1c(-c2ccc(OCC(F)(F)F)cc2Cl)nnc1C1(c2ccccc2)CC1 [Ex. 1-129] | < 0.01 µM |
| Cn1c(-c2ccc(OCCN)cc2Cl)nnc1C1(c2ccccc2)CC1 [Ex. 1-130] | 0.01 to 1 µM |
| Cn1c(-c2ccc(N3CCC(O)C3)cc2Cl)nnc1C1(c2ccccc2)CC1 (stereo not shown) [Ex. 1-131] | < 0.01 µM |
| CC(C)n1c(-c2ccc(C(N)=O)cc2)nnc1C1(c2ccccc2)CC1 [Ex. 1-132] | < 0.01 µM |
| Cn1c(-c2ccccc2Cl)nnc1C1(c2ccc(F)cc2)CC1 [Ex. 1-134] | < 0.01 µM |
| CN(O)C(=O)Nc1ccc(-c2nnc(C3(c4ccccc4)CC3)n2C)c(Cl)c1 [Ex. 1-137] | < 0.01 µM |
| Cn1c(-c2ccc(C(N)=O)cc2Cl)nnc1C1(c2cccs2)CC1 [Ex. 1-144] | < 0.01 µM |
| CC(C)n1c(-c2ccc(C(N)=O)cc2)nnc1C1(c2ccc(F)cc2)CC1 [Ex. 1-145] | < 0.01 µM |
| CC(C)n1c(-c2ccc(N3CCOC3=O)cc2)nnc1C1(c2ccc(F)cc2)CC1 [Ex. 1-149] | < 0.01 µM |
| COC(=O)Nc1ccc(Cl)c(-c2nnc(C3(c4ccc(F)cc4)CC3)n2C)c1 [Ex. 1-150] | < 0.01 µM |

| SMILES | IC50 |
| --- | --- |
| CONC(=O)Nc1ccc(-c2nnc(C3(c4ccc(F)cc4)CC3)n2C)c(Cl)c1 [Ex. 1-152] | < 0.01 µM |
| CONC(=O)Nc1ccc(-c2nnc(C3(c4ccc(F)cc4)CC3)n2C(C)C)cc1 [Ex. 1-153] | < 0.01 µM |
| CC(C)n1c(-c2cccc(N3CCOC3=O)c2)nnc1C1(c2ccc(F)cc2)CC1 [Ex. 1-154] | < 0.01 µM |
| CCn1c(-c2ccc(C(N)=O)cc2Cl)nnc1C1(c2ccccc2)CC1 [Ex. 1-158] | < 0.01 µM |
| CCn1c(-c2ccc(C(N)=O)cc2Cl)nnc1C1(c2ccc(F)cc2)CC1 [Ex. 1-159] | < 0.01 µM |
| CC(C)n1c(-c2cccc(C(N)=O)c2)nnc1C1(c2ccccc2)CC1 [Ex. 1-160] | < 0.01 µM |
| CC(C)n1c(-c2cccc(C(N)=O)c2)nnc1C1(c2ccc(F)cc2)CC1 [Ex. 1-161] | < 0.01 µM |
| Cn1c(N2CCC(c3ccccc3)CC2)nnc1C1(c2ccccc2)CC1 [Ex. 2-1, 1-[4-methyl-5-(1-phenylcyclopropyl)-4H-[1,2,4]triazol-3-yl]-4-phenylpiperidine] | < 0.01 µM |
| COC(=O)C1(c2ccccc2)CCN(c2nnc(C3(c4ccccc4)CC3)n2C)CC1 [Ex. 2-2] | 0.01 to 1 µM |
| COC(=O)C1CCN(c2nnc(C3(c4ccccc4)CC3)n2C)CC1 [Ex. 2-4] | 0.01 to 1 µM |
| Cn1c(N2CCC(C(=O)O)CC2)nnc1C1(c2ccccc2)CC1 [Ex. 2-5] | 0.01 to 1 µM |
| Cn1c(N2CCC(CO)CC2)nnc1C1(c2ccccc2)CC1 [Ex. 2-6] | < 0.01 µM |
| Cn1c(N2CCC(NC(=O)OC(C)(C)C)CC2)nnc1C1(c2ccccc2)CC1 [Ex. 2-7] | 0.01 to 1 µM |
| Cn1c(N2CCC(N)CC2)nnc1C1(c2ccccc2)CC1 [Ex. 2-8] | 0.01 to 1 µM |
| CC(=O)NC1CCN(c2nnc(C3(c4ccccc4)CC3)n2C)CC1 [Ex. 2-9] | 0.01 to 1 µM |
| Cn1c(N2CCC(NC(=O)c3ccc(Cl)cc3Cl)CC2)nnc1C1(c2ccccc2)CC1 [Ex. 2-10] | 0.01 to 1 µM |
| CN(C(=O)OC(C)(C)C)C1CCN(c2nnc(C3(c4ccccc4)CC3)n2C)CC1 [Ex. 2-11] | 0.01 to 1 µM |
| CNC1CCN(c2nnc(C3(c4ccccc4)CC3)n2C)CC1 [Ex. 2-12] | 0.01 to 1 µM |
| CC(=O)N(C)C1CCN(c2nnc(C3(c4ccccc4)CC3)n2C)CC1 [Ex. 2-13] | 0.01 to 1 µM |
| Cn1c(N2CCCCC2)nnc1C1(c2ccccc2)CC1 [Ex. 2-14] | < 0.01 µM |
| Cn1c(N2CCC(C(F)(F)F)CC2)nnc1C1(c2ccccc2)CC1 [Ex. 2-15] | < 0.01 µM |
| Cn1c(N2CCC(C(N)=O)CC2)nnc1C1(c2ccccc2)CC1 [Ex. 2-16] | < 0.01 µM |
| Cn1c(N2CCC(CO)(c3ccccc3)CC2)nnc1C1(c2ccccc2)CC1 [Ex. 2-17] | 0.01 to 1 µM |
| CNC(=O)C1CCN(c2nnc(C3(c4ccccc4)CC3)n2C)CC1 [Ex. 2-18] | 0.01 to 1 µM |
| CN(C)C(=O)C1CCN(c2nnc(C3(c4ccccc4)CC3)n2C)CC1 [Ex. 2-19] | 0.01 to 1 µM |
